The nature of data set [1]: log P by HPLC on reversed-phase columns (C 18), method [a], acidic range pH 2.3. In kind it is physicochemical. The following applies: for chromatographic logP: pH 2.3, log P (pH 2.3). As to the method:
The log P values were measured in accordance with EEC Directive 79/831 Annex V.A8 by HPLC (High Performance Liquid Chromatography) on reversed-phase columns (C 18) using the methods below: [a] The determination was carried out in the acidic range at pH 2.3 using the mobile phases 0.1% aqueous phosphoric acid and acetronitrile linear gradient from 10% acetonitrile to 95% acetronitrile.

The nature of a further data set: physchem. The settings on record: pH 7.8. In kind it is physicochemical. The method, then: The log P values were measured in accordance with EEC Directive 79/831 Annex V.A8 by HPLC (High Performance Liquid Chromatography) on reversed-phase columns (C 18) using the methods below: [c] The LC-MS determination in the neutral range was carried out at pH 7.8 using the mobile phases 0.001 molar aqueous ammonium bicarbonate solution and acetonitrile linear gradient from 10% acetonitrile to 95% acetonitrile.

A further data set deals with Fusarium proliferatum. Put plainly: Production of Fumonisin FB1 by Fusarium proliferatum (microtitre plates; FB1 by HPLC-MS/MS, growth by OD620). It counts as cell-based. The following applies: for pI50 Fum: FB1 concentration in liquid medium after 6 days at 20° C., HPLC-MS/MS; for pI50 growth: OD620 at the beginning and after 6 days.
The nature of data set [2]: log P by LC-MS, method [b], acid range pH 2.7. In kind it is physicochemical. The settings on record: pH 2.7. As to the method:
The log P values were measured in accordance with EEC Directive 79/831 Annex V.A8 by HPLC (High Performance Liquid Chromatography) on reversed-phase columns (C 18) using the methods below:
[b] The LC-MS determination in the acid range was carried out at pH 2.7 using the mobile phases 0.1% aqueous formic acid and acetonitrile (contains 0.1% formic acid)
linear gradient from 10% acetonitrile to 95% acetonitrile.

Regarding `COCC(C)Nc1nc(Nc2cccc(N3CCCC3=O)c2)ncc1C(F)(F)F` (stereo not shown) [Example 6], the results for the log p (in data set [1] (pH 2.3); in “physchem”) were 2.4[a]; and 2.79[c], respectively.
Consider `O=C1CCCN1c1ccc(Nc2ncc(Cl)c(NCC(F)(F)F)n2)cc1` [Example 9], for which the log p is 1.96[a]; in data set [1] (pH 2.3) and 2.34[c] in the data set “physchem”.
On to `O=C1CCCN1c1cccc(Nc2ncc(Cl)c(NCC(F)(F)F)n2)c1` [Example 10], for which the log p was 2.08[a]; in data set [1] (pH 2.3) and 2.42[c] in the data set “physchem”.
`O=C1OCCN1c1ccc(Nc2ncc(I)c(NC3CC3)n2)cc1` [Example 11]: the log p is 1.41[a]; in data set [1] (pH 2.3) and 2.48[c] in the data set “physchem”.
As to `C=CCNc1nc(Nc2ccc(N3CCCC3=O)cc2)ncc1Cl` [Example 13], the log p is 1.38[a]; in data set [1] (pH 2.3) and 2.29[c] in the data set “physchem”.
The like results for `C=CCNc1nc(Nc2cccc(N3CCCC3=O)c2)ncc1Cl` [Example 14] were, in that order, 1.45[a]; and 2.37[c].
Taken in the same sequence, the figures for `C=CCNc1nc(Nc2ccc(N3CCOC3=O)cc2)ncc1Cl` [Example 15] were 1.25[a]; and 2.25[c].
Turning to `O=C1OCCN1c1ccc(Nc2ncc(Cl)c(NC3COC3)n2)cc1` [Example 17], the log p in data set [1] (pH 2.3) was 0.26[a];; in “physchem”, 0.76[c].
Taken in the same sequence, the figures for `O=C1CCCN1c1ccc(Nc2ncc(Cl)c(NC3COC3)n2)cc1` [Example 18] were 0.41[a]; and 0.9[c].
Turning to `CC1COC(=O)N1c1cccc(Nc2ncc(C(F)(F)F)c(NC3CC3)n2)c1` (stereo not shown) [Example 19], the “pI50 Fum” value in the data set with Fusarium proliferatum was determined as 6.2. Besides, the log p in data set [2] was 2.4[b].
Regarding `O=C1CCCN1c1cc(Nc2ncc(Cl)c(NC3CC3)n2)ccc1OC(F)(F)F` [Example 20], the log p was 2.34[a]; in data set [1] (pH 2.3) and 2.91[c] in “physchem”.
Taken in the same sequence, the figures for `CC(C)Nc1nc(Nc2ccc(N3CCCC3=O)cc2)ncc1Cl` [Example 21] were 1.44[a]; and 2.56[c].
The like results for `CC(C)Nc1nc(Nc2cccc(N3CCCC3=O)c2)ncc1Cl` [Example 22] were, in that order, 1.52[a]; and 2.64[c].
Take `CC1(C)CC(=O)N(c2cccc(Nc3ncc(Br)c(NC4CC4)n3)c2)C1=O` [Example 28]: the “pI50 Fum” value in the data set with Fusarium proliferatum was found to be 6.2. The log p in data set [2] was 1.99[b].
In the case of `CC1CCC(=O)N1c1cccc(Nc2ncc(Br)c(NC3CCC3)n2)c1` (stereo not shown) [Example 36], in the data set with Fusarium proliferatum, the “pI50 Fum” value is 6.2 and the pI50 growth is on record as 5.3. The log p in data set [2] is 1.97[b].
Turning to `CSCC(C)(C)Nc1nc(Nc2cccc(N3CCCC3=O)c2)ncc1Cl` [Example 41], the log p is 2.17[a]; in data set [1] (pH 2.3) and 3.26[c] in the data set “physchem”.
As to `O=C1CCCN1c1cccc(Nc2ncc(F)c(NC3CCC3)n2)c1` [Example 43], the log p in data set [1] (pH 2.3) is 1.31[a];; in “physchem” it was 2.32[c].
Taken in the same sequence, the figures for `O=C1CCCN1c1cccc(Nc2ncc(Cl)c(NCC(F)F)n2)c1` [Example 44] were 1.64[a]; and 2.19[c].
Taken in the same sequence, the figures for `O=C1CCCN1c1cc(Nc2ncc(Cl)c(NCC(F)F)n2)ccc1F` [Example 51] were 1.72[a]; and 2.15[c].
Taken in the same sequence, the figures for `CNc1nc(Nc2ccc(N3CCOC3=O)cc2)ncc1Cl` [Example 61] were 0.73[a]; and 1.82[c].
Turning to `CC1CC(=O)N(c2cccc(Nc3ncc(Cl)c(NC4CC4)n3)c2)C1=O` (stereo not shown) [Example 65], in the data set with Fusarium proliferatum, the “pI50 Fum” value was determined as 6.2 and the pI50 growth is recorded as 5.7. The log p in data set [2] is 1.59[b].
As to `CC1CC(=O)N(c2cccc(Nc3ncc(Br)c(NC4CCC4)n3)c2)C1=O` (stereo not shown) [Example 73], in the data set with Fusarium proliferatum, the “pI50 Fum” value was 6.4 and the pI50 growth worked out at 5.8. In addition, in data set [2], the log p was 1.9[b].
Take `CC(C)[C@H]1COC(=O)N1c1cccc(Nc2ncc(Cl)c(NC3CC3)n2)c1` [Example 76]: in the data set on Fusarium proliferatum, the “pI50 Fum” value amounted to 6.2 and the pI50 growth came to 5.6. Moreover, the log p in data set [2] was 2.47[b].
Take `CC(C)N(C)c1nc(Nc2cccc(N3CCCC3=O)c2)ncc1Cl` [Example 77]: the log p in data set [1] (pH 2.3) was 2.1[a];; in “physchem” it was 3.18[c].
In the case of `O=C1C(O)CCN1c1cccc(Nc2ncc(Cl)c(NC3CC3)n2)c1` (stereo not shown) [Example 78], the figures for the log p (in data set [1] (pH 2.3); in “physchem”) were 1.14[a]; and 1.84[c], respectively.
Taken in the same sequence, the figures for `O=C1CCC(CO)N1c1cccc(Nc2ncc(Br)c(NC3CC3)n2)c1` (stereo not shown) [Example 79] were 1.04[a]; and 1.65[c].
Taken in the same sequence, the figures for `CN(c1nc(Nc2cccc(N3C(=O)CCC3CO)c2)ncc1Cl)C1CC1` (stereo not shown) [Example 82] were 1.54[a]; and 2.06[c].
The like results for `O=C1C[C@@H](O)CN1c1cccc(Nc2ncc(Cl)c(NC3CC3)n2)c1` [Example 108] were, in that order, 0.98[a]; and 1.68[c].
Turning to `CC1COC(=O)N1c1cccc(Nc2ncc(Cl)c(NC3CC3(C)C)n2)c1` (stereo not shown) [Example 120], the log p was 2.15[a]; in data set [1] (pH 2.3), 2.15[b] in data set [2] and 3.12[c]; in the data set “physchem”.
The like results for `CC1CC(=O)N(c2cccc(Nc3ncc(Cl)c(NC4CC4(C)C)n3)c2)C1=O` (stereo not shown) [Example 121] were, in that order, 2.13[a];, 2.13[b] and 2.92[c];.
The like results for `CC1(C)CC(=O)N(c2cccc(Nc3ncc(Cl)c(NC4CC4(C)C)n3)c2)C1=O` (stereo not shown) [Example 122] were, in that order, 2.42[a];, 2.42[b] and 3.28[c];.
The like results for `CC1(C)CC1Nc1nc(Nc2cccc(N3CCCC3=O)c2)ncc1Cl` (stereo not shown) [Example 127] were, in that order, 1.98[a];, 1.98[b] and 2.99[c];.
`CC1COC(=O)N1c1cccc(Nc2ncc(Br)c(NCC3CC3)n2)c1` (stereo not shown) [Example 131]: in the data set with Fusarium proliferatum, the “pI50 Fum” value amounted to 6 and the pI50 growth came out at 5.3. Also, the log p in data set [2] was 1.75[b].
Consider `O=C1CCC(CO)N1c1cccc(Nc2ncc(Cl)c(NC3CC3)n2)c1` (stereo not shown) [Example 136], for which the log p was 0.96[a]; in data set [1] (pH 2.3) and 1.6[c] in the data set “physchem”.
In the case of `COC(=O)C1CC(=O)N(c2cccc(Nc3ncc(Cl)c(NC4CC4)n3)c2)C1` (stereo not shown) [Example 137], in the data set on Fusarium proliferatum, the “pI50 Fum” value is recorded as 5.7 and the pI50 growth is listed as 5.1. Further, in data set [2], the log p is 1.52[b].
The like results for `CC(C)Nc1nc(Nc2cccc(N3CCOC3=O)c2)ncc1Cl` [Example 138] were, in that order, 5, 4.9 and 1.56[b].
On to `CC(=O)N(c1cccc(N2CCCC2=O)c1)c1ncc(Cl)c(NCC2CC2)n1` [Example 184], for which, in data set [1] (pH 2.3), the “log P (pH 2.3)” value stood at 2.35. The log p in data set [2] is 2.35[b]; in the data set “physchem”, 2.38[c];.
As a reminder, the chromatographic logP is a lipophilicity value derived from retention on a column. Read a low chromatographic logP as a more hydrophilic compound. On to `CC(Nc1nc(Nc2cccc(N3CCCC3=O)c2)ncc1C(F)(F)F)C(F)(F)F` (stereo not shown) [Example 220, 1-[3-({5-(Trifluoromethyl)-4-[(1,1,1-trifluoropropan-2-yl)amino]pyrimidin-2-yl}amino)phenyl]-pyrrolidin-2-one], for which the results for the chromatographic logP (in data set [1]; in data set [2]; in “physchem”) were 3.08, 3.08 and 3.05, respectively.
As for `CC1CCN(Cc2cccc(Nc3ncc(Cl)c(N(C)C4CC4)n3)c2)C1=O` (stereo not shown) [Example 233], the log p was 2.5[a]; in data set [1] (pH 2.3) and 3.25[c] in “physchem”.
As for `CC1CCN(Cc2cccc(Nc3ncc(Cl)c(NC4CC4)n3)c2)C1=O` (stereo not shown) [Example 234], the log p was 1.7[a]; in data set [1] (pH 2.3) and 2.57[c] in the data set “physchem”.
Taken in the same sequence, the figures for `COC1=CC(=O)N(c2cccc(Nc3ncc(Cl)c(NC4CC4)n3)c2)C1` [Example 237] were 1.55[a]; and 2.45[c].
With `COC1=CC(=O)N(c2cccc(Nc3ncc(Br)c(NC4CC4)n3)c2)C1` [Example 238], the log p in data set [1] (pH 2.3) is 1.77[a];; in “physchem”, 2.65[c].
Consider `CN1CCN(c2cccc(Nc3ncc(Cl)c(NC4CC4(C)C)n3)c2)C1=O` (stereo not shown) [Example 313], for which the log p in data set [1] (pH 2.3) is 1.93[a];; in data set [2], 1.93[b]; in “physchem” it was 3.06[c];.
As to `CC(C)OC(=O)N(c1cccc(N2CCCC2=O)c1)c1ncc(Cl)c(NC2CC2)n1` [Example 329, Isopropyl [5-chloro-4-(cyclopropylamino)pyrimidin-2-yl][3-(2-oxopyrrolidin-1-yl)phenyl]carbamate], the chromatographic logP in data set [1] is 2.24; in data set [2], 2.24; in the data set “physchem”, 2.55.
For the compound `CCOC(=O)N(c1cccc(N2CCCC2=O)c1)c1ncc(Cl)c(NC2CC2)n1` [Example 330, Ethyl [5-chloro-4-(cyclopropylamino)pyrimidin-2-yl][3-(2-oxopyrrolidin-1-yl)phenyl]-carbamate], the chromatographic logP was 2.04 in data set [1], 2.04 in data set [2] and 2.24 in “physchem”.

(Values after patent US20110245242A1, “Heterocyclically Substituted Anilinopyrimides” (Bayer CropScience AG, priority 2008, published 2011).)
